This note sets out measurements from patent US8840873B2, “Method of treating second and third degree burns using oxidative reductive potential water solution” (priority 2005, dated 2014).

Read-outs that look alike come from different tables or passages of the source.

The test system of series [1] is murine polychromatic erythrocytes (bone marrow). As to conditions: mice; for PCE/NCE ratio: intraperitoneal, cyclophosphamide 8 mg/mL, 12.5 ml/kg on day 2. The method, then:
The mammalian in vivo micronucleus test is used for the identification of substances which cause damage to chromosomes or the mitotic apparatus of murine polychromatic erythrocytes. This damage results in the formation of “micronuclei,” intracellular structures containing lagging chromosome fragments or isolated whole chromosomes. […] The positive control mice received a single intraperitoneal injection of cyclophosphamide (8 mg/mL, 12.5 ml/kg) on day 2. All mice were observed immediately after injection for any adverse reactions. […] On day 3, all mice were weighed and terminated.
The femurs were excised from the terminated mice, the bone marrow was extracted, and duplicate smear preparations were performed for each mouse. The bone marrow slides for each animal were read at 40× magnification. The ratio of polychromatic erythrocytes (PCE) to normochromatic erythrocytes (NCE), an index of bone marrow toxicity, was determined for each mouse by counting a total of at least 200 erythrocytes. Then a minimum of 2000 scoreable PCE per mouse were evaluated for the incidence of micronucleated polychromatic erythrocytes. Statistical analysis of the data were done using the Mann and Whitney test (at 5% risk threshold) from a statistical software package (Statview 5.0, SAS Institute Inc., USA).

Series [2] concerns human diploid fibroblasts (HDFs). Kind of series: Cell viability, apoptosis and necrosis in HDFs by flow cytometry. The settings on record: for apoptosis (Annexin-V): 880 mM HP; for necrosis (cells incorporating propidium iodide) / Cell viability (7AAD): pure ORP water solution or 880 mM HP. For orientation: Flow cytometry measures light scatter and fluorescence of single cells or particles in a stream.

Series [3] concerns primary HDF cultures. Kind of series: SA-β-galactosidase expression in HDFs after chronic exposure. As to conditions: 20 population doublings (one month), ORP water solution 10% or HP 5 μM. The format is cell-based, human. The source says: The results are depicted in FIG. 6.
Series [4] relates to human diploid fibroblasts (HDFs). The series can be described thus: 8-OHdG DNA adducts in HDFs (ELISA). The settings on record: HP 500 μM. (ELISA stands for enzyme-linked immunosorbent assay.)

Take `O=P1(N(CCCl)CCCl)NCCCO1` (stereo not drawn) [cyclophosphamide]: the PCE/NCE ratio turned out to be 0.73 in series [1] (females) and 0.77 in series [1] (males). In addition, the “number of polychromatic erythrocytes bearing micronuclei” value in series [1] (males, intraperitoneal 12.5 ml/kg) was found to be 11.0.

Take `OO` [HP, hydrogen peroxide]: the “apoptosis (Annexin-V)” value turned out to be 15% in series [2] (5 min exposure) and 20% in series [2] (30 min exposure). Moreover, the figures for the “necrosis (cells incorporating propidium iodide)” value in series [2] (5 min exposure) and in series [2] (30 min exposure) were 20% and 75%, respectively. Moreover, the results for the “Cell viability (7AAD)” value in series [2] (5 minute exposure) and in series [2] (30 min exposure) were 55% and 5%, respectively. Moreover, the “cells expressing SA-β-Gal” value in series [3] came out at 86%. Further, the “8-OHdG adducts relative to control-treated cells” value in series [4] (30 minutes treatment then 3 hour recovery in supplemented DMEM) is “about 5 times”; in series [4] (30 minutes treatment, DNA extracted right after exposure) it was “about 25 fold”.
